Square brackets hold non-standard residues; d marks the D form. Peptide text beside a SMILES is read from it. * marks the point of attachment. Dolaproine = CO[C@@H]([C@@H]1CCCN1)[C@@H](C)C(=O)O; Dil = CC[C@H](C)[C@H](NC)[C@@H](CC(=O)O)OC; X1 = C[C@@H](N*)[C@@H](O)c1ccccc1; NMeV = CN[C@H](C(=O)O)C(C)C

Assay [1] concerns HeLa cells. Description: ATP and HMGB1 secretion from MMAE-treated HeLa cells. The class given is cell-based. To be noted: 100 nM MMAE, over 24 hours, versus untreated cells. The text has this:
Induction of ICD is also characterized by the secretion of ATP and HMGB1. Extracellular ATP serves as a strong chemotactic signal, promoting immune cell migration to the tumor site. Upon arrival, extracellular HMGB1 signals through various pro-inflammatory receptors (TLR2, TLR4, RAGE) to activate antigen-presenting cells, thereby promoting immune activity within the tumor.

For assay [2], the system named is HPAFII (pancreatic carcinoma). Kind of assay: Western blot of ER stress pathways in HPAFII cells. The class given is cell-based. To be noted: 18 hours (FIG. 5 legend: 16 hours). As for the experimental part: (§1) Induction of cell death and release of ICD danger signals occurs concomitant with initiation of an ER stress response. Two Tissue Factor positive cell lines, HPAFII (pancreatic carcinoma) and MDA-MB-231 (breast cell carcinoma) were exposed to tisotumab vedotin ADC, an Isotype-MMAE ADC (H00-MMAE, IgG1 MMAE), or free MMAE for 18 hours and induction of ER stress monitored by western blot analysis. Phosphorylation of inositol-requiring transmembrane kinase/endonuclease 1 (IRE1) was detected after treatment with tisotumab vedotin ADC or MMAE free drug (FIG. 5). […] The ability for auristatins to prime the immune system to recognize tumor antigens opens the door for a myriad of combinatorial therapeutic options.
(A western blot detects proteins with antibodies after separation by electrophoresis.)

The subject of assay [3] is T cells. Kind of assay: T cell activation in CSFE labeled PBMCs fed drug-killed MDA-MB-231 cells, with or without nivolumab. Type of assay: cell-based, human. To be noted: for T cell proliferation (CSFE dilution) / IFNγ production / IL12p70 production: MDA-MB-231 cells exposed to the agent; for T cell proliferation (CSFE dilution): fed to CSFE labeled human PBMCs for 48 hours; for IFNγ production / IL12p70 production: fed to human PBMCs for 48 hours. The text has this:
Induction of the innate immune response following exposure to cancer cells undergoing ICD sets up secondary T cell activation, which can be enhanced by concomitant anti-PD1 treatment.

For assay [4], the system named is HeLa cells. Kind of assay: Western blot of ER stress signalling in MMAE-treated HeLa cells. To be noted: 100 nM MMAE, 16 hours. Type of assay: cell-based. As for the experimental part: HeLa cells, a cervical cancer cell line, were cultured in Minimum Essential Medium (MEM) with 10% FBS, 10 mM HEPES, 1 mM sodium pyruvate, 2 mM L-glutamine, penicillin (100 U/ml), and streptomycin (100 μg/ml). HeLa cells were treated with 100 nM MMAE for 16 hours and harvested in radioimmunoprecipitation assay buffer (RIPA) buffer for western blot analysis. […] Severe ER stress is a prerequisite to the exposure of pro-phagocytic signals on the surface of tumor cells, and can be indicated by activation of JNK signaling by phosphorylated IRE1.

Assay [5] concerns wild-type tumor cells. Description: Syngeneic model: immunization with drug-killed human TF positive tumor cells, then tumor challenge. Type of assay: in vivo, Balb/c mice. To be noted: for survival after challenge / tumor growth after challenge: Balb/c mice immunized with human TF positive tumor cells killed by the agent, challenged s.c. with 5×10^6 wild-type tumor cells. The method, then:
Mouse tumor cells are transfected with plasmid constructs encoding human tissue factor (TF) and sgRNA-guided Cas9 nuclease (sgRNA/Cas9) to generate a murine cell line that expresses the human TF. Fluorescence activated cell sorting (FACS) yields a clonal population of murine tumor cells that stably express human TF, these cells are then treated with lpg to 5 μg per ml of tisotumab vedotin or 100 nM of MMAE for 4 days. In order to prepare dying cells for immunization, treated murine tumor cells are overlaid atop Histopaque, and centrifuged at 2000 g for 30 minutes. Dead and dying cells are pelleted underneath the Histopaque layer, and viability assessed by trypan blue exclusion. A sample with approximately <20% live cells as measured by trypan blue exclusion is obtained. Flash-frozen tumor cells are prepared by submerging the cells in liquid nitrogen for 10 seconds, followed by immersion in 37° C. water until completely thawed. The liquid nitrogen freeze-thaw process is repeated 5 times. Dead and dying human TF positive tumor cells are resuspended in phosphate buffered saline (PBS) and 2×10^6 cells are injected into the peritoneum of immune-competent Balb/c mice. Seven days later, mice receive a second immunization with dead and dying cells prepared in the same manner.
Fourteen days after initial immunization with the dead and dying human TF positive tumor cells, mice are subcutaneously implanted with 5×10^6 wild-type tumor cells and monitored for tumor growth. […] As these effects occur in the absence of any administered therapeutic agent, the administration of cells killed by tisotumab vedotin or MMAE is sufficient to generate long-lasting protective immune memory against subsequent tumor cell challenge. Protective immune memory is amplified by treating these mice with tisotumab vedotin in combination with an antibody that binds to murine PD-1. This combination treatment increases the number of mice that are cured by subsequent tumor challenge.

The test system of assay [6] is Tissue Factor positive cell lines. Description: Release of ICD molecules ATP and HMGB1 from Tissue Factor positive cells. Type of assay: cell-based. To be noted: for ATP secretion: FIG. 4A; for HMGB1 release: FIG. 4C. The text has this: Auristatin ADC payloads disrupt the microtubule networks resulting in altered ER localization and function, which ultimately results in ER stress. Cells exposed to Tissue Factor directed antibody linked to the monomethyl auristatin E payload (MMAE), i.e., tisotumab vedotin (an antibody drug conjugate or ADC), undergo cell death and as they do release the ICD related molecules ATP (FIG. 4A) and HMGB1 (FIG. 4C). The release of these molecules is specific to tisotumab vedotin ADC and MMAE treatment and occurs across multiple Tissue Factor positive cell lines (FIG. 4B).

The test system of assay [7] is HeLa cells. Description: Live imaging of RFP-tubulin and ER-ID Green in MMAE-treated HeLa cells. The class given is cell-based. To be noted: 100 nM MMAE, imaged over time. As for the experimental part:
Treatment of HeLa cells with MMAE led to disassembly of the microtubule network and subsequent ER mislocalization. HeLa cells were transduced with a baculovirus encoding RFP-labeled Tubulin (CellLight Tubulin-RFP, ThermoFisher Scientific) and an ER-binding dye (ER-ID Green, Enzo Life Sciences). Cells were treated with 100 nM MMAE and imaged over time in the present of MMAE. Within 2 hours, fragmentation and disassembly of the microtubule network became evident, concurrent with the breakdown of the perinuclear organized ER lattice (FIGS. 2A and B). The condensed and mislocalized ER skeleton indicated severe ER stress within 8 hours.

The subject of assay [8] is MDA-MB-231 (breast cell carcinoma). Kind of assay: Western blot of ER stress pathways in MDA-MB-231 cells. Type of assay: cell-based. To be noted: 18 hours (FIG. 5 legend: 16 hours). As for the experimental part: as §1
Assay [9] has as its system CD14+ monocyte/macrophages. Kind of assay: Monocyte/macrophage activation in PBMCs fed drug-killed MDA-MB-231 cells. Type of assay: cell-based. To be noted: MDA-MB-231 cells killed with the agent, fed to human PBMCs; for monocyte/macrophage activation monitored by CD86 expression: flow cytometry. The text has this:
FIGS. 6A and 6B is a series of graphs in which Tissue Factor positive MDA-MB-231 cells killed with various agents were fed to human peripheral blood mononuclear cells (PBMCs) and immune activation assessed by increased expression of activations markers on innate CD14+ monocyte/macrophages and induction of chemokine and cytokine production.
Immunogenic cell death, as mediated by MMAE, is regulated cell death that activates adaptive immune responses against antigens from dead and dying tumor cells, and allows for the generation of robust innate immune cell activation and subsequent cytotoxic T cell responses targeted towards specific tumor cell antigens. […] Furthermore, these monocyte/macrophages conditioned by ICD-killed cells promote activation of T cells, as evidenced by production of signature inflammatory cytokines associated with cytotoxic T cell responses.

The subject of assay [10] is advanced cervical cancer. To be noted: 240 mg Q2W, 19 patients with previously treated; cited from earlier work.
Setting [11] is: concomitant nivolumab treatment, 48 hours.

For `CC[C@H](C)[C@@H]([C@@H](CC(=O)N1CCC[C@H]1[C@H](OC)[C@@H](C)C(=O)N[C@H](C)[C@@H](O)c1ccccc1)OC)N(C)C(=O)[C@@H](NC(=O)[C@@H](NC)C(C)C)C(C)C` [MMAE, monomethyl auristatin E] (H-[NMeV]V[Dil][Dolaproine]-X1), in assay [1], the “secretion of ATP” value is “increased secretion” and the “secretion of HMGB1” value is recorded as “increased secretion”. For the same compound, in assay [2], the “ATF4 cleavage (PERK pathway)” value is on record as “upregulation of ATF4 cleavage”, the “activation of JNK (phosphorylation)” value was “increased phosphorylation” and the “phosphorylation of IRE1” value is “detected”. Besides, in [3], the “T cell proliferation (CSFE dilution)” value is “drove T cell proliferation”, the IFNγ production result was “increased” and the IL12p70 production entry is “increased”. In assay [4], the “phosphorylation of IRE1” value was “led to phosphorylation”; the “phosphorylation of JNK” value was “phosphorylation of IRE1 and JNK”. Besides, in [5], the survival after challenge entry was “increased survival” and the “tumor growth after challenge” value is “delayed tumor growth”. In addition, in [6], the ATP secretion entry is reported as “robust” and the HMGB1 release entry was “robust”. Also, in assay [7], the “time until condensed and mislocalized ER skeleton indicated severe ER stress” value is not above 8 h; the “time until fragmentation and disassembly of the microtubule network and breakdown of the perinuclear ER lattice became evident” value is not above 2 h. Besides, in [8], the “ATF4 cleavage (PERK pathway)” value is on record as “upregulation of ATF4 cleavage”, the “activation of JNK (phosphorylation)” value is “increased phosphorylation” and the “phosphorylation of IRE1” value is given as “detected”. Besides, in assay [9], the “release of innate chemokines including MIP10” value is recorded as “induced release” and the “monocyte/macrophage activation monitored by CD86 expression” value was “drove monocyte/macrophage activations”.

Turning to “nivolumab: anti-PD-1 antibody, a checkpoint inhibitor”, in assay [10], the objective response rate is on record as 26%. The “effect of nivolumab on T cell proliferation driven by tisotumab vedotin or MMAE killed cells” value in [3] (2 mg/ml of nivolumab, 48 hours) is reported as “enhanced”. Moreover, in [3] (setting [11]), the “effect of concomitant nivolumab on IFNγ production after tisotumab vedotin and MMAE killed cells” value was “increased”; the “effect of concomitant nivolumab on IL12p70 production after tisotumab vedotin and MMAE killed cells” value is recorded as “increased”.

As for tisotumab, in [3], the “T cell proliferation (CSFE dilution)” value is recorded as “did not elicit these responses”, the IFNγ production entry was “did not elicit these responses” and the IL12p70 production entry was “did not elicit these responses”.

Consider tisotumab vedotin, for which, in assay [2], the “ATF4 cleavage (PERK pathway)” value is “upregulation of ATF4 cleavage”, the “activation of JNK (phosphorylation)” value was “increased phosphorylation” and the “phosphorylation of IRE1” value is on record as “detected”. In addition, in assay [3], the “T cell proliferation (CSFE dilution)” value was “drove T cell proliferation”, the IFNγ production entry is listed as “increased” and the IL12p70 production result is reported as “increased”. In addition, in assay [5], the survival after challenge entry is “increased survival” and the “tumor growth after challenge” value is on record as “delayed tumor growth”. For the same compound, the “number of mice cured by subsequent tumor challenge” value in assay [5] (immunized mice treated with tisotumab vedotin in combination with an antibody that binds to murine PD-1) is recorded as “increases”. For the same compound, in assay [6], the ATP secretion result is reported as “robust” and the HMGB1 release result is listed as “robust”. Further, in assay [6] (FIG. 4B), the “activity (release of ICD molecules) on multiple Tissue Factor positive cell lines” value was “active”. Moreover, in assay [8], the “ATF4 cleavage (PERK pathway)” value is given as “upregulation of ATF4 cleavage”, the “activation of JNK (phosphorylation)” value is recorded as “increased phosphorylation” and the “phosphorylation of IRE1” value is listed as “detected”. In assay [9], the “release of innate chemokines including MIP10” value is given as “induced release” and the “monocyte/macrophage activation monitored by CD86 expression” value is reported as “drove monocyte/macrophage activations”.

Values taken from patent US20250066507A1, “METHODS OF TREATING CANCER WITH A COMBINATION OF AN ANTI-PD-1 ANTIBODY AND AN ANTI-TISSUE FACTOR ANTIBODY-DRUG CONJUGATE” (Genmab A/S, priority 2018, published 2025).
